Literature values in US20180318246A1 (SUN PHARMACEUTICAL INDUSTRIES LIMITED, priority 2015, published 2018).
Where a name gives a salt, the structure may show the parent alone.

## COC(=O)/C=C/C(=O)OC [dimethyl fumarate]
  Permeability coefficient compared with monomethyl fumarate: significantly higher
